From patent US12139520B2 (priority 2020, dated 2024)
Bridge positions count the residues as written; N and C are the ends. Square brackets hold non-standard residues; d marks the D form. Peptide text beside a SMILES is read from it. Hyp = O=C(O)[C@@H]1C[C@@H](O)CN1; Cit = NC(=O)NCCC[C@H](N)C(=O)O

Experiments:
hAMY3 receptor = biological target: T1, hAMY3 receptor (Homo sapiens, UniProt O60896+P30988); test: cAMP assay for in vitro receptor activation, hAMY3-R; assay type: cell-based; details: cAMP assay, hAMY3 receptor; read-out: hAMY3R EC50
T1 sequence (P30988 25-474): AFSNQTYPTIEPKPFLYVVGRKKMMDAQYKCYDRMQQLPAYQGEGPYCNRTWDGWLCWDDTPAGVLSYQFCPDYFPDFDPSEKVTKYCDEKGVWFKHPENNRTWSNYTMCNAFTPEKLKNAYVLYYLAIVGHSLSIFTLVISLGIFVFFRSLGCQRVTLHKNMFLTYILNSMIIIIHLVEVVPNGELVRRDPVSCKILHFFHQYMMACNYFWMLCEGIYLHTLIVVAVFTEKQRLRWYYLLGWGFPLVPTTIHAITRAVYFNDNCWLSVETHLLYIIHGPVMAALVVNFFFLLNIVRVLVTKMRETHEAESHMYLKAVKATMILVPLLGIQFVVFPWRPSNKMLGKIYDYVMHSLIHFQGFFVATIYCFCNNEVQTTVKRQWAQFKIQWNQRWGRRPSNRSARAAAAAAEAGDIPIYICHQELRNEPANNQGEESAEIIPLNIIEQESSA
T1 sequence (O60896 24-148 partner): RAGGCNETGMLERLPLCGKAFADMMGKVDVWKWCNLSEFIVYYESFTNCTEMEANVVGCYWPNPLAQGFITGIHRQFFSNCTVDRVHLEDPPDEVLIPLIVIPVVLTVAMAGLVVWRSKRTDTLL
In short: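 Accumulated cAMP was detected by time-resolved FRET one hour after reagent addition. Beforehand, hAMY3-R-overexpressing monoclonal cells (2000/well, DPBS, 0.05% casein, 0.5 mM IBMX) received graded doses of compound for 30 min at room temperature; human amylin served as positive control.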

[1] = Physical stability of peptide analogues (Thioflavin T fibrillation); assay type: physicochemical; details: maximum ThT signal normalized between hAMY maximum and buffer background; 40° C., shaking, four days; pH 7 per table title
In short: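 1 h in 50 mM NaOAc pH 4 / 50 mM NaPi pH 7; + ThT 4 μM final; 40 °C, 700 rpm linear shake 5 min pre-read; ex 450, em 480 nm q10 min × 4 d; LOESS smoothing; max signal normalised to hAMY max vs buffer blank.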

EC50 (hAMY3 receptor) | Max ThT signal (%) [1] | SMILES
0.09 nM | 0.800% | CC[C@H](C)[C@H](NC(=O)[C@H](CCC(N)=O)NC(=O)[C@H](Cc1c[nH]cn1)NC(=O)[C@H](C)NC(=O)[C@H](CC(C)C)NC(=O)[C@H](CCCNC(=N)N)NC(=O)[C@H](CCC(N)=O)NC(=O)[C@@H](NC(=O)[C@@H](NC(=O)[C@@H]1CSSC[C@H](NC(=O)CN)C(=O)N[C@@H](CCCNC(=N)N)C(=O)N[C@@H]([C@@H](C)O)C(=O)NCC(=O)N[C@@H]([C@@H](C)O)C(=O)N1)[C@@H](C)O)C(C)C)C(=O)N[C@@H](Cc1ccc(O)cc1)C(=O)N[C@@H](CCC(N)=O)C(=O)N[C@@H](Cc1ccccc1)C(=O)N[C@H](C(=O)N[C@@H](CC(=O)O)C(=O)N[C@@H](CCCCN)C(=O)N[C@@H](Cc1ccccc1)C(=O)N[C@@H](CCCCN)C(=O)N[C@@H](CC(=O)O)C(=O)N[C@@H](CC(N)=O)C(=O)N[C@H](C(=O)N[C@@H](C)C(=O)N1CCC[C@H]1C(=O)N[C@@H](CCCNC(=N)N)C(=O)N[C@@H](CO)C(=O)N[C@@H](CCCCN)C(=O)N[C@H](C(=O)N[C@@H](CO)C(=O)N1CCC[C@H]1C(=O)N[C@@H](CCC(N)=O)C(=O)N[C@H](C(=O)N[C@@H](Cc1c[nH]c2ccccc12)C(N)=O)[C@@H](C)O)[C@@H](C)CC)C(C)C)[C@@H](C)O [compound 184] (H-GCRTGTCTVQRLAHQIYQFTDKFKDNVAPRSKISPQTW-NH2; disulfide 2-7; N-terminus assumed)
0.003 nM | 25.450% | CC[C@H](C)[C@H](NC(=O)[C@H](CCC(N)=O)NC(=O)[C@H](Cc1c[nH]cn1)NC(=O)[C@H](C)NC(=O)[C@H](CC(C)C)NC(=O)[C@H](CCCNC(N)=O)NC(=O)[C@H](CCC(N)=O)NC(=O)[C@@H](NC(=O)[C@@H](NC(=O)[C@@H]1CSSC[C@H](NC(=O)CN)C(=O)N[C@@H](CCCNC(=N)N)C(=O)N[C@@H](Cc2ccccc2)C(=O)NCC(=O)N[C@@H]([C@@H](C)O)C(=O)N1)[C@@H](C)O)C(C)C)C(=O)N[C@@H](Cc1ccc(O)cc1)C(=O)N[C@@H](CCC(N)=O)C(=O)N[C@@H](Cc1ccccc1)C(=O)N[C@H](C(=O)N[C@@H](CC(=O)O)C(=O)N[C@@H](CCCCN)C(=O)N[C@@H](CC(=O)O)C(=O)N[C@@H](CCCCN)C(=O)N[C@@H](CC(=O)O)C(=O)N[C@@H](CC(N)=O)C(=O)N[C@H](C(=O)N[C@@H](C)C(=O)N1CCC[C@H]1C(=O)N[C@@H](CCCNC(=N)N)C(=O)N[C@H](C(=O)N[C@@H](CC(N)=O)C(=O)N[C@H](C(=O)NCC(=O)N1CCC[C@H]1C(=O)N[C@@H](CC(N)=O)C(=O)NCC(=O)N1C[C@H](O)C[C@H]1C(N)=O)C(C)C)[C@@H](C)O)C(C)C)[C@@H](C)O [compound 270] (H-GCRFGTCTVQ[Cit]LAHQIYQFTDKDKDNVAPRTNVGPNG[Hyp]-NH2; disulfide 2-7; N-terminus assumed)
0.024 nM | 7.400% | CC[C@H](C)[C@H](NC(=O)[C@H](CC(N)=O)NC(=O)[C@@H](NC(=O)[C@H](CCCNC(=N)N)NC(=O)[C@@H]1CCCN1C(=O)[C@H](C)NC(=O)[C@@H](NC(=O)[C@H](CC(N)=O)NC(=O)[C@H](CC(=O)O)NC(=O)[C@H](CCCCN)NC(=O)[C@H](CC(=O)O)NC(=O)[C@H](CCCCN)NC(=O)[C@H](CC(=O)O)NC(=O)[C@@H](NC(=O)[C@H](Cc1ccccc1)NC(=O)[C@H](CCC(N)=O)NC(=O)[C@H](Cc1ccc(O)cc1)NC(=O)[C@@H](NC(=O)[C@H](CCC(N)=O)NC(=O)[C@H](Cc1c[nH]cn1)NC(=O)[C@H](C)NC(=O)[C@H](CC(C)C)NC(=O)[C@H](CCCNC(=N)N)NC(=O)[C@H](CCC(N)=O)NC(=O)[C@@H](NC(=O)[C@@H](NC(=O)[C@@H]1CSSC[C@H](NC(=O)CN)C(=O)N[C@@H](CCCNC(=N)N)C(=O)N[C@@H]([C@@H](C)O)C(=O)NCC(=O)N[C@@H]([C@@H](C)O)C(=O)N1)[C@@H](C)O)C(C)C)[C@@H](C)CC)[C@@H](C)O)C(C)C)[C@@H](C)O)C(=O)NCC(=O)N1CCC[C@H]1C(=O)N[C@@H](CCC(N)=O)C(=O)NCC(=O)N1C[C@H](O)C[C@H]1C(N)=O [compound 118] (H-GCRTGTCTVQRLAHQIYQFTDKDKDNVAPRTNIGPQG[Hyp]-NH2; disulfide 2-7; N-terminus assumed)
0.054 nM | 24.300% | CC[C@H](C)[C@H](NC(=O)[C@H](CCC(N)=O)NC(=O)[C@H](Cc1c[nH]cn1)NC(=O)[C@H](C)NC(=O)[C@H](CC(C)C)NC(=O)[C@H](CCCNC(=N)N)NC(=O)[C@H](CCC(N)=O)NC(=O)[C@@H](NC(=O)[C@@H](NC(=O)[C@@H]1CSSC[C@H](NC(=O)CN)C(=O)N[C@@H](CCCNC(=N)N)C(=O)N[C@@H](Cc2ccccc2)C(=O)NCC(=O)N[C@@H]([C@@H](C)O)C(=O)N1)[C@@H](C)O)C(C)C)C(=O)N[C@@H](Cc1ccc(O)cc1)C(=O)N[C@@H](CCC(N)=O)C(=O)N[C@@H](Cc1ccccc1)C(=O)N[C@H](C(=O)N[C@@H](CC(=O)O)C(=O)N[C@@H](CCCCN)C(=O)N[C@@H](CC(=O)O)C(=O)N[C@@H](CCCCN)C(=O)N[C@@H](CC(=O)O)C(=O)N[C@@H](CC(N)=O)C(=O)N[C@H](C(=O)N[C@@H](C)C(=O)N1CCC[C@H]1C(=O)N[C@@H](CCCNC(=N)N)C(=O)N[C@H](C(=O)N[C@@H](CCCCN)C(=O)N[C@H](C(=O)N[C@@H](CO)C(=O)N1CCC[C@H]1C(=O)N[C@@H](CCC(N)=O)C(=O)NCC(=O)N[C@@H](Cc1ccc(O)cc1)C(N)=O)[C@@H](C)CC)[C@@H](C)O)C(C)C)[C@@H](C)O [compound 164] (H-GCRFGTCTVQRLAHQIYQFTDKDKDNVAPRTKISPQGY-NH2; disulfide 2-7)
0.056 nM | 6.600% | CC[C@H](C)[C@H](NC(=O)[C@H](CCC(N)=O)NC(=O)[C@H](Cc1c[nH]cn1)NC(=O)[C@H](C)NC(=O)[C@H](CC(C)C)NC(=O)[C@H](CCCNC(=N)N)NC(=O)[C@H](CCC(N)=O)NC(=O)[C@@H](NC(=O)[C@@H](NC(=O)[C@@H]1CSSC[C@H](NC(=O)CN)C(=O)N[C@@H](CCCNC(=N)N)C(=O)N[C@@H](Cc2ccccc2)C(=O)NCC(=O)N[C@@H]([C@@H](C)O)C(=O)N1)[C@@H](C)O)C(C)C)C(=O)N[C@@H](Cc1ccc(O)cc1)C(=O)N[C@@H](CCC(N)=O)C(=O)N[C@@H](Cc1ccccc1)C(=O)N[C@H](C(=O)N[C@@H](CC(=O)O)C(=O)N[C@@H](CCCCN)C(=O)N[C@@H](CC(=O)O)C(=O)N[C@@H](CCCCN)C(=O)N[C@@H](CC(=O)O)C(=O)N[C@@H](CC(N)=O)C(=O)N[C@H](C(=O)N[C@@H](C)C(=O)N1CCC[C@H]1C(=O)N[C@@H](CCCNC(=N)N)C(=O)N[C@@H](CO)C(=O)N[C@@H](CCCCN)C(=O)N[C@H](C(=O)N[C@@H](CO)C(=O)N1CCC[C@H]1C(=O)N[C@@H](CCC(N)=O)C(=O)NCC(=O)N1C[C@H](O)C[C@H]1C(N)=O)C(C)C)C(C)C)[C@@H](C)O [compound 167] (H-GCRFGTCTVQRLAHQIYQFTDKDKDNVAPRSKVSPQG[Hyp]-NH2; disulfide 2-7; N-terminus assumed)
